We go through 1 compound from patent US6410486B1 (priority 1997, dated 2002).

Where two headings read alike, the source gives them in different places.

This experiment concerns Pyricularia oryzae. It counts as in vivo. The note with it: root application as in Use Example 2, untreated control 80%.

Turning to `CC(NC(=O)C(C#N)C1CC1)c1ccc(Cl)cc1` (centres unmarked) [I.1, N-(4′-Chlorophenyl)ethyl-1-cyclopropyl-1-cyanoacetamide], the “% infestation of leaves after application of an aqueous active compound preparation containing . . . ppm” value by setting is: (10 ppm) 20%; (50 ppm) 5%.
